Test [1] has as its target recombinant wild-type FintCSP1 (Frankliniella intonsa, UniProt A0A891LVF4). The experiment in a line: Fluorescence (1-NPN) binding and competitive binding assay, wild-type FintCSP1. Particulars: wild-type FintCSP1. Here is the method: (§1) FintCSP1 and FoccCSP DNA were released from pEASY-T1/FintCSP1 and pEASY-T1/FoccCSP, respectively, by restriction digestion with BamHI and XhoI and cloned into the pET-30a vector (Invitrogen). The resulting construct was transformed into Transetta (DE3) Escherichia coli competent cells (Transgen). The production of recombinant FintCSP1 and FoccCSP was induced by addition of isopropyl-β-D-1-thiogalactopyranoside (IPTG, 0.2 mM) at 15°C and purified by Ni ion affinity chromatography (Sangon Biotech, Shanghai, China). The target protein was verified by 15% SDS-PAGE, and its concentration was determined with a BCA protein assay kit (Thermo Scientific, Rockford, IL, USA). The recombinant purified protein was stored at −20°C until use.
(§2) The binding affinity of FintCSP1 and FoccCSP to the fluorescent probe N-phenyl-1-naphthylamine (1-NPN) was tested using a Spectramax M2 fluorescence spectrometer (Molecular Devices, USA) as reported previously. […] The 1-NPN/FintCSP1 or 1-NPN/FoccCSP mixture was excited at 280 nm, and the emission spectra were recorded at 415 nm. The binding constants (Kd) of FintCSP1 or FoccCSP to 1-NPN were calculated by Scatchard analysis using Prism 5 software (GraphPad, La Jolla, CA, USA). Assuming a protein activity of 100% and that the volatile compound binds to the protein in a 1:1 ratio at saturation, the dissociation constants (Ki) of FintCSP1 or FoccCSP for each ligand were calculated according to the IC50 (the concentration when the ligand replaces 50% of the probe) value of the volatile compounds. The Ki values were calculated according to the following equation: Ki = [IC50]/(1 + [1-NPN]/K1-NPN), where [1-NPN] is the free concentration of 1-NPN, and K1-NPN is the Kd of the 1-NPN/FintCSP1 or 1-NPN/FoccCSP.

The target of test [2] is FintCSP1-Glu67Ala (Frankliniella intonsa, UniProt A0A891LVF4, E67A). The experiment in a line: Fluorescence (1-NPN) binding and competitive binding assay, FintCSP1 mutant. As to the method:
as §2
(§3) To verify the key amino acids of FintCSP1 and FoccCSP that bind to cis-3-hexenal, six amino acid residues of FintCSP1 were mutated (Lys26Ala, Phe27Ala, Thr28Ala, Glu67Ala, Ser84Ala, and the negative control residue Val132Ala) and nine amino acid residues of FoccCSP were mutated (Lys26Ala, Phe27Ala, Thr28Ala, Thr29Ala, Tyr31Ala, Asp64Ala, Glu67Ala, Gln87Ala, and the negative control residue Val132Ala) with the Fast Mutagenesis System Kit (Transgen Biotech, Beijing, China) using the pET-30a/FintCSP1 and pET-30a/FoccCSP plasmid DNA as template, respectively. Specific primers were designed using Primer Premier 5.0 according to the instructions of the Fast Mutagenesis System Kit (S1 Table). After validation by sequencing, each recombinant variant protein was produced and purified as described above, and their binding affinity to cis-3-hexenal was measured as described above.

The target in test [3] is FintCSP1-Lys26Ala (Frankliniella intonsa, UniProt A0A891LVF4, K26A). The test is described as above. As to the method:
as §2, §3

The target of test [4] is FintCSP1-Phe27Ala (Frankliniella intonsa, UniProt A0A891LVF4, F27A). The description is as above. Here is the method:
as §2, §3

Test [5] addresses FintCSP1-Thr28Ala (Frankliniella intonsa, UniProt A0A891LVF4, T28A). The test is described as above. Here is the method: as §2, §3
For test [6], the target named is recombinant wild-type FoccCSP (Frankliniella occidentalis, UniProt G4Y3X1). The experiment in a line: Fluorescence (1-NPN) binding and competitive binding assay, wild-type FoccCSP. To be noted: wild-type FoccCSP, displacement of 1-NPN, both 2 μM. As to the method: as §1
The binding affinity of FintCSP1 and FoccCSP to the fluorescent probe N-phenyl-1-naphthylamine (1-NPN) was tested using a Spectramax M2 fluorescence spectrometer (Molecular Devices, USA) as reported previously. Volatile compounds and 1-NPN were first dissolved to a concentration of 1 mM in HPLC-grade methanol and dissolved to their indicated final concentration (2–20 μM) to titrate 2 μM protein solutions resuspended in 50 mM Tris-HCl (pH 7.4). The 1-NPN/FintCSP1 or 1-NPN/FoccCSP mixture was excited at 280 nm, and the emission spectra were recorded at 415 nm. The binding constants (Kd) of FintCSP1 or FoccCSP to 1-NPN were calculated by Scatchard analysis using Prism 5 software (GraphPad, La Jolla, CA, USA). Assuming a protein activity of 100% and that the volatile compound binds to the protein in a 1:1 ratio at saturation, the dissociation constants (Ki) of FintCSP1 or FoccCSP for each ligand were calculated according to the IC50 (the concentration when the ligand replaces 50% of the probe) value of the volatile compounds. The Ki values were calculated according to the following equation: Ki = [IC50]/(1 + [1-NPN]/K1-NPN), where [1-NPN] is the free concentration of 1-NPN, and K1-NPN is the Kd of the 1-NPN/FintCSP1 or 1-NPN/FoccCSP.

The subject of test [7] is OBP5 from Apolygus lucorum. More on the design: method as in PMID 23665333. Particulars: cited from earlier work.

Some results are limits rather than exact numbers.

Chain of recombinant wild-type FintCSP1 (A0A891LVF4 entry or part of it): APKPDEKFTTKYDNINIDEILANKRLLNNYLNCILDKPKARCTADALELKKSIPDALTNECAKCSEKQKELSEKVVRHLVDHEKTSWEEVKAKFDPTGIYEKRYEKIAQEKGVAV
Chain of FintCSP1-Phe27Ala (A0A891LVF4 entry or part of it F27A): as the sequence (A0A891LVF4 entry or part of it) above, with F8A counted along it
Chain of FintCSP1-Glu67Ala (A0A891LVF4 entry or part of it E67A): as the sequence (A0A891LVF4 entry or part of it) above, with E48A counted along it
Chain of recombinant wild-type FoccCSP (G4Y3X1 entry or part of it): as the sequence (A0A891LVF4 entry or part of it) above, with D5E, I15V, A44N, A62M, V80A, D81E, H82K, T85E, Q109K counted along it
Chain of FintCSP1-Thr28Ala (A0A891LVF4 entry or part of it T28A): as the sequence (A0A891LVF4 entry or part of it) above, with T9A counted along it
Chain of FintCSP1-Lys26Ala (A0A891LVF4 entry or part of it K26A): as the sequence (A0A891LVF4 entry or part of it) above, with K7A counted along it

`CC/C=C\CC=O` [cis-3-hexenal]: in test [1] (competitive fluorescence binding assay, classes of Ki), the “binding affinity to FintCSP1 (in words)” value was “moderate binding affinity”. For the same compound, the half-inhibitory concentration (IC50) (commonly the midpoint of a concentration-inhibition curve) is 36.2 ± 1 µM in test [1] (displacement of 1-NPN, protein and 1-NPN both 2 μM, 50 mM Tris-HCl pH 7.4, read-out: IC50); over 100 µM in test [2]; over 100 µM in test [3]; 53.5 ± 3.07 µM in test [4]; over 100 µM in test [5]; 28.8 ± 0.45 µM in test [6] (50 mM Tris-HCl pH 7.4). For the same compound, the Ki (as a rule, the equilibrium dissociation constant of an inhibitor or competing ligand from its target) in test [1] (displacement of 1-NPN, protein and 1-NPN both 2 μM, pH 7.4, calculated from IC50, read-out: Ki) is 28.7 ± 0.79 µM; in test [4], 41.1 ± 2.36 µM; in test [6] (pH 7.4) it was 23.4 ± 0.36 µM. The “affinity for cis-3-hexenal (in words)” value in test [2] (FintCSP1-Glu67Ala, competitive fluorescent assay) is “no affinity”; in test [3] (FintCSP1-Lys26Ala, competitive fluorescent assay), “no affinity”; in test [4] (FintCSP1-Phe27Ala compared with wild-type FintCSP1), “weaker affinity”; in test [5] (FintCSP1-Thr28Ala, competitive fluorescent assay), “no affinity”. The “binding to OBP5 (in words)” value in test [7] is “strongly binds”.

Values taken from publication PMC10194981, “Chemosensory protein regulates the behavioural response of Frankliniella intonsa and Frankliniella occidentalis to tomato zonate spot virus–Infected pepper (Capsicum annuum)” (PLOS Pathogens, 2023).
